From patent publication US20170305922A1, “CARM1 INHIBITORS AND USES THEREOF” (Epizyme, Inc., priority 2014, published 2017)

Key:
[1] = target: T1, Human CARM1 (PRMT4) (Homo sapiens, UniProt Q86X55); experiment: CARM1 enzyme assay on peptide substrates (3H-SAM Flashplate); details: Biochemical assay; CARM1 0.25 nM, 3H-SAM 30 nM, peptide 250 nM; read-out: Biochem IC50
T1 construct: Flag-CARM1-His was eluted with 200 ug/ml FLAG peptide in buffer A; made in house; host or cells: HEK 293F cells infected with recombinant baculovirus (pFastBacMam)
T1 sequence (Q86X55 1-585 isoform Q86X55-1): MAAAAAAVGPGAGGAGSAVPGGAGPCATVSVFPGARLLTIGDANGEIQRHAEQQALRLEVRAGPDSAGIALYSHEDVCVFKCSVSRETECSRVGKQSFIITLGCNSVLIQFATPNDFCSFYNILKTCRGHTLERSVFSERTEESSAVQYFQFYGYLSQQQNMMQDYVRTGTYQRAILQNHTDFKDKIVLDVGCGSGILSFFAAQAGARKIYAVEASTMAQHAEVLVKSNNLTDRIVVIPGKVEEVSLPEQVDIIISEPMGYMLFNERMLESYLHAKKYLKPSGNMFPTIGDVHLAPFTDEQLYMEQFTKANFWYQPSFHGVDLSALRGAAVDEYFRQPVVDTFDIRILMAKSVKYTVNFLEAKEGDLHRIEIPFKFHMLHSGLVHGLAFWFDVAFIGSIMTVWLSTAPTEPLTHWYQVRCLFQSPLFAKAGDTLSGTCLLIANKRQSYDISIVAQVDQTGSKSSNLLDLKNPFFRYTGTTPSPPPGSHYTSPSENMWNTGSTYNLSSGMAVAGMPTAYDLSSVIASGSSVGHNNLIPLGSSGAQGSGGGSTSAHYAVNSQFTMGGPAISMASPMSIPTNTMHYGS
Excerpt: S-adenosylmethionine (SAM), S-adenosylhomocysteine (SAH), bicine, Tween20, dimethylsulfoxide (DMSO), bovine skin gelatin (BSG), sodium butyrate and Tris(2-carboxyethyl)phosphine hydrochloride solution (TCEP) were purchased from Sigma-Aldrich at the highest level of purity possible. ^3H-SAM was purchase from American Radiolabeled Chemicals with a specific activity of 80 Ci/mmol. 384-well streptavidin Flashplates were purchased from PerkinElmer.
Peptide representative of human histone H3 residues 16-30 was synthesized with an N-terminal linker-affinity tag motif and a C-terminal amide cap by 21st Century Biochemicals. […] The sequence was Biot-Ahx-[…]-amide and contained a monomethylated arginine at position 26 (SEQ ID NO.:1).
The gene sequence encoding isoform1 containing a deletion of amino acids 539-561 was amplified subsequently and subcloned into pFastBacMam (Viva Biotech).
Recombinant baculovirus were generated according to Bac-to-Bac kit instructions (Life Technologies). Protein over-expression was accomplished by infecting exponentially growing HEK 293F cell culture at 1.3×10^6 cell/ml with virus (MOI=10) in the presence of 8 mM sodium butyrate. Infections were carried out at 37° C. for 48 hours, harvested by centrifugation, and stored at −80° C. for purification.
Column was washed with 500 mM NaCl in buffer A and Flag-CARM1-His was eluted with 200 ug/ml FLAG peptide in buffer A. Pooled fractions were dialyzed in 20 mM Tris, 150 mM NaCl, 5% glycerol and 1 mM DTT, pH 7.8.
The assays were all performed in a buffer consisting of 20 mM Bicine (pH=7.6), 1 mM TCEP, 0.005% BSG, and 0.002% Tween 20, prepared on the day of use. Compounds in 100% DMSO (1 ul) were spotted into a polypropylene 384-well V-bottom plates (Greiner) using a Platemate Plus outfitted with a 384-channel head (Thermo Scientific). DMSO (1 ul) was added to Columns 11, 12, 23, 24, rows A-H for the maximum signal control and 1 ul of SAH, a known product and inhibitor of CARM1, was added to columns 11, 12, 23, 24, rows I-P for the minimum signal control. A cocktail (40 ul) containing the CARM1 enzyme was added by Multidrop Combi (Thermo-Fisher). The compounds were allowed to incubate with CARM1 for 30 min at room temperature, then a cocktail (10 ul) containing ^3H-SAM and peptide was added to initiate the reaction (final volume=51 ul). The final concentrations of the components were as follows: CARM1 was 0.25 nM, ^3H-SAM was 30 nM, peptide was 250 nM, SAH in the minimum signal control wells was 1 mM, and the DMSO concentration was 2%. The assays were stopped by the addition of non-radiolabeled SAM (10 ul) to a final concentration of 300 uM, which dilutes the ^3H-SAM to a level where its incorporation into the peptide substrate is no longer detectable. 50 ul of the reaction in the 384-well polypropylene plate was then transferred to a 384-well Flashplate and the biotinylated peptides were allowed to bind to the streptavidin surface for at least 1 hour before being washed once with 0.1% Tween20 in a Biotek ELx405 plate washer. The plates were then read in a PerkinElmer TopCount plate reader to measure the quantity of ^3H-labeled peptide bound to the Flashplate surface, measured as disintegrations per minute (dpm) or alternatively, referred to as counts per minute (cpm).
where dpm=disintegrations per minute, cmpd=signal in assay well, and min and max are the respective minimum and maximum signal controls.
where top and bottom are the normally allowed to float, but may be fixed at 100 or 0 respectively in a 3-parameter fit. The Hill Coefficient normally allowed to float but may also be fixed at 1 in a 3-parameter fit. Y is the % inhibition and X is the compound concentration.

[2] = tested on: asymmetric di-methyl PABP1 in RKO cells; experiment: RKO methylation assay: In Cell Western (ICW) for asymmetric di-methyl PABP1 (PABP1me2a); details: Homo sapiens, RKO, 48 h, Cellular-based (PABP1me2a) ICW (In Cell Western) assay
Excerpt: RKO adherent cells were purchased from ATCC (American Type Culture Collection), Manassas, Va., USA. DMEM/Glutamax medium, penicillin-streptomycin, heat inactivated fetal bovine serum, 0.05% trypsin and D-PBS were purchased from Life Technologies, Grand Island, N.Y., USA. Odyssey blocking buffer, 800CW goat anti-rabbit IgG (H+L) antibody, and Licor Odyssey infrared scanner were purchased from Licor Biosciences, Lincoln, Nebr., USA. Asymmetric di-methyl PABP1 antibody was purchased from Cell Signaling Technology, Danvers, Mass., USA. Methanol was purchased from VWR, Franklin, Mass., USA. 10% Tween 20 was purchased from KPL, Inc., Gaithersburg, Md., USA. Paraformaldehyde (PFA) was purchased from EM Sciences. DRAQ5 was purchased from Biostatus Limited, Leicestershire, UK.
RKO adherent cells were maintained in growth medium (DMEM/Glutamax medium supplemented with 10% v/v heat inactivated fetal bovine serum and 100 units/mL penicillin-streptomycin) and cultured at 37° C. under 5% CO2.
Cell treatment, In Cell Western (ICW) for detection of asymmetric di-methyl PABP1 and DNA content: RKO cells were seeded in assay medium at a concentration of 30,000 cells per mL to a poly-D-lysine coated 384 well culture plate (BD Biosciences 356697) with 50 μL per well. Compound (100 nL) from a 96-well source plate was added directly to 384 well cell plate. Plates were incubated at 37° C., 5% CO2 for 48 hours. After two days of incubation, plates were brought to room temperature outside of the incubator for ten minutes and blotted on paper towels to remove cell media. Cells were fixed for 20 minutes at room temperature by adding 50 ul of 8% PFA followed by aspiration of supernatant with the Biotek EL406 plate washer. Cells were then permeabilized by addition of 50 μL of ice cold 100% methanol directly to each well and incubated for 30 min at room temperature. After 30 min, plates were transferred to a Biotek EL406 plate washer and washed 2 times with 100 μL per well of wash buffer (1×PBS). Next 60 μL per well of Odyssey blocking buffer (Odyssey Buffer with 0.1% Tween 20 (v/v)) were added to each plate and incubated 1 hour at room temperature. Blocking buffer was removed and 20 μL per well of primary antibody was added (asymmetric-methyl PABP1) diluted 1:400 in Odyssey buffer with 0.1% Tween 20 (v/v)) and plates were incubated overnight (16 hours) at 4° C. Plates were washed 5 times with 100 μL per well of wash buffer. Next 20 μL per well of secondary antibody was added (1:800 800CW goat anti-rabbit IgG (H+L) antibody, 1:2000 DRAQ5 in Odyssey buffer with 0.1% Tween 20 (v/v)) and incubated for 1 hour at room temperature. The plates were washed 5 times with 100 μL per well wash buffer then 2 times with 100 μL per well of water. Plates were allowed to dry at room temperature then imaged on the Licor Odyssey machine which measures integrated intensity at 700 nm and 800 nm wavelengths. Both 700 and 800 channels were scanned.
First, the ratio for each well was determined by:
Each plate included fourteen control wells of DMSO only treatment (minimum inhibition) as well as fourteen control wells for maximum inhibition treated with 20 μM of a reference compound. The average of the ratio values for each control type was calculated and used to determine the percent […] for each test well in the plate. Reference compound was serially diluted three-fold in DMSO for a total of nine test concentrations, beginning at 20 μM.
Percent inhibition was determined and IC50 curves were generated using triplicate wells per concentration of compound.

Compound | IC50 [1] [nM] | IC50 [2] [nM]
CNC[C@@H](O)COc1ccc(Cl)c(-c2nc(-c3c(C)noc3C)c(C)c(N3C[C@H]4CN(C(=O)C(F)(F)F)C[C@H]4C3)n2)c1 [Example 31] | 1.4 | 2150
CNC[C@@H](O)COc1ccc(Cl)c(-c2nc(-c3c(C)noc3C)c(C)c(N3CC4(CCN(CC(F)F)C4)C3)n2)c1 [Example 32] | 7 | 53
CNC[C@@H](O)COc1ccc(Cl)c(-c2nc(-c3c(C)noc3C)c(C)c(N3CC4(CCN(C(=O)N(C)C)CC4)C3)n2)c1 [Example 33] | 7.2 | 83
CNC[C@@H](O)COc1ccc(Cl)c(-c2nc(-c3c(C)noc3C)c(C)c(N3Cc4c(n(C)c(=O)n(C)c4=O)C3C)n2)c1 (some centres unmarked) [Example 34] | 5.1 | 120
CNC[C@@H](O)COc1ccc(Cl)c(-c2nc(-c3c(C)noc3C)c(C)c(N3Cc4c(n(C)c(=O)n(C)c4=O)C3)n2)c1 [Example 35] | 3.7 | 412
CNC[C@@H](O)COc1ccc(Cl)c(-c2nc(-c3c(C)noc3C)c(C)c(N3Cc4cnc(C5CC5)cc4C3)n2)c1 [Example 36] | 2.4 | 49
CCc1cc2c(cn1)CN(c1nc(-c3cc(OC[C@H](O)CNC)ccc3Cl)nc(-c3c(C)noc3C)c1C)C2 [Example 37] | 2.6 | 37
CNC[C@@H](O)COc1ccc(F)c(-c2nc(-c3c(C)noc3C)c(C)c(N3CC4(CCN(CC(F)F)C4)C3)n2)c1 [Example 38] | 5.7 | 76
CNC[C@@H](O)COc1ccc(Cl)c(-c2nc(-c3c(C)noc3C)c(C)c(N3Cc4ccc(Cl)nc4C3)n2)c1 [Example 39] | 2 | 32
CNC[C@@H](O)COc1ccc(Cl)c(-c2nc(-c3c(C)noc3C)c(C)c(N3Cc4nc5n(c(=O)c4C3)CCC5)n2)c1 [Example 40] | 2.8 | 391
CNC[C@@H](O)COc1ccc(Cl)c(-c2nc(-c3c(C)noc3C)c(C)c(N3CC4(CN(C(=O)N(C)C)C4)C3)n2)c1 [Example 41] | 8.7 | 546
CNC[C@@H](O)COc1ccc(Cl)c(-c2nc(-c3c(C)noc3C)c(C)c(N3CC4(C3)CN(S(C)(=O)=O)C4)n2)c1 [Example 42] | 10.4 | 406
CNC[C@@H](O)COc1ccc(Cl)c(-c2nc(-c3c(C)noc3C)c(C)c(N3CC4(CN(C(=O)OC)C4)C3)n2)c1 [Example 43] | 10 | 84
CNC[C@@H](O)COc1ccc(Cl)c(-c2nc(-c3c(C)noc3C)c(C)c(N3Cc4cnc(C)cc4C3)n2)c1 [Example 44] | 2.9 | 27
CNC[C@@H](O)COc1ccc(Cl)c(-c2nc(-c3c(C)noc3C)c(C)c(N3CC4(CCN(CC(F)(F)F)C4)C3)n2)c1 [Example 45] | 11.9 | 40
CNC[C@@H](O)COc1ccc(Cl)c(-c2nc(-c3c(C)noc3C)c(C)c(N3CC4(CCN(CC(F)(F)F)CC4)C3)n2)c1 [Example 46] | 17.4 | 35
CNC[C@@H](O)COc1ccc(Cl)c(-c2nc(-c3c(C)noc3C)c(C)c(N3Cc4c(n5c(nc4=O)CCC5)C3)n2)c1 [Example 47] | 6.3 | > 20000
CNC[C@@H](O)COc1ccc(Cl)c(-c2nc(-c3c(C)noc3C)c(C)c(N3CC4(CCN(C(=O)N(C)C)C4)C3)n2)c1 [Example 48] | 12.7 | 238
CNC[C@@H](O)COc1ccc(Cl)c(-c2nc(-c3c(C)noc3C)c(C)c(N3CC4(CCN(S(C)(=O)=O)C4)C3)n2)c1 [Example 49] | 7.7 | 399
CNC[C@@H](O)COc1ccc(Cl)c(-c2nc(-c3c(C)noc3C)c(C)c(N3CC4(CCN(C5COC5)C4)C3)n2)c1 [Example 50] | 8.8 | 155
CNC[C@@H](O)COc1ccc(Cl)c(-c2nc(-c3c(C)noc3C)c(C)c(N3CC4(CCN(C(C)=O)CC4)C3)n2)c1 [Example 51] | 10.8 | 356
CNC[C@@H](O)COc1ccc(Cl)c(-c2nc(-c3c(C)noc3C)c(C)c(N3CC4(CCN(S(C)(=O)=O)CC4)C3)n2)c1 [Example 52] | 7.3 | 230
